Source: US12637468B2, “Substituted [1,2,4]triazolo[4,3-b]pyridazines as GABAA receptor modulators” (SHANGHAI SIMR BIOTECHNOLOGY CO., LTD., priority 2019, dated 2026)
Values after ≈ are worked out from the molar mass of the structure shown.

How the values were obtained:
[1] = Thermodynamic solubility in simulated intestinal fluid (TS in FaSSIF); format: physicochemical; conditions: thermodynamic from solid, 37° C.
Experimental: Simulated intestinal fluid FaSSIF: 54.76 mg of FaSSIF-V2 (Biorelevant, batch. V2FAS-0619-A, lot. V2FAS01) was weighed and added to 15 mL of a buffer solution. After dissolving, the solution was supplemented to 30 mL, and put at room temperature for 1 hour before use.
Waters e2695 HPLC high performance liquid chromatography, Mettler XSE105 analytical balance.
Firstly, a 10 mM stock solution was prepared with DMSO, and was diluted with a diluent (ACN: PB buffer 50:50) into 1 μM-200 μM as a standard solution.
Thermodynamic solubility in intestinal fluid (TS in FaSSIF) was simulated. About 0.3 mg of each sample was weighed and added to 1.5 mL of FaSSIF solution, with two parts in parallel, shaken at 1000 rpm at 37° C. for 4 hours, filtered. 1 mL of an initial filtrate was discarded, and 400 μL of the subsequent filtrate was taken. The filtrate was detected by high performance liquid chromatograph (UV).

α5-GABAA receptor = molecular target: T1, α5-GABAA receptor (Homo sapiens, UniProt P18507+P31644); test: Cell-level screening: whole cell patch clamp, inverse agonist efficacy on α5-GABAA receptor expressed in HEK293; format: cell-based; conditions: drug 100 nM, GABA 0.05 μM, HEK293 expressing α5, β3 and γ2 subunits, clamped at −60 mV; read-out: Compound inverse agonist efficacy %
T1 construct: expressed in transfected cells; host or cells: HEK293, monoclonal stably transfected line
T1 sequence (P31644 32-462): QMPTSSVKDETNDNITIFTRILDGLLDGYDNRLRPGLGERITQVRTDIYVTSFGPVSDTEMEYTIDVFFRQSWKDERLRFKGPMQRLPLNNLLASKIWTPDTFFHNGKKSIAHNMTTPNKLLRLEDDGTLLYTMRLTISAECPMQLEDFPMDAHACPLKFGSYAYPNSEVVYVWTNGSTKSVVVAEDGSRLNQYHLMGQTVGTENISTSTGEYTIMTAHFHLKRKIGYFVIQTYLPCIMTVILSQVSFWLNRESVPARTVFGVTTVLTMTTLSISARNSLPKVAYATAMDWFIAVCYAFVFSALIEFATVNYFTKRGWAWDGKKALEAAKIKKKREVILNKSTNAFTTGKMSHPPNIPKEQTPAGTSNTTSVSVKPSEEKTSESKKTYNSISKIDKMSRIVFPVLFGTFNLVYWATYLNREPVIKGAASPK
T1 sequence (P28472 26-473 partner): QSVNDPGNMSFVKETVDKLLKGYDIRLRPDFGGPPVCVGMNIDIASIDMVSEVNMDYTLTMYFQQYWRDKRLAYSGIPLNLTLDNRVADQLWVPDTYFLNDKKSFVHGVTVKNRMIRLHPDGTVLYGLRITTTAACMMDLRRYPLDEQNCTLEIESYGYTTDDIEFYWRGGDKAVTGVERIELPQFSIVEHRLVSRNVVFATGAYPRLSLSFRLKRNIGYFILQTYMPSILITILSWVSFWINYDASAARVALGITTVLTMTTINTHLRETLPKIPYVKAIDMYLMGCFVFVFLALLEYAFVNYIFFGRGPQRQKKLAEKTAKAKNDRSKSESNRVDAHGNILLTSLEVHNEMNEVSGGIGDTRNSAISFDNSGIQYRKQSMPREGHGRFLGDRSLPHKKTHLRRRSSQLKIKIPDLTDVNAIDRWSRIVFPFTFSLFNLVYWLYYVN
T1 sequence (P18507 40-467 isoform P18507-1 limits assumed): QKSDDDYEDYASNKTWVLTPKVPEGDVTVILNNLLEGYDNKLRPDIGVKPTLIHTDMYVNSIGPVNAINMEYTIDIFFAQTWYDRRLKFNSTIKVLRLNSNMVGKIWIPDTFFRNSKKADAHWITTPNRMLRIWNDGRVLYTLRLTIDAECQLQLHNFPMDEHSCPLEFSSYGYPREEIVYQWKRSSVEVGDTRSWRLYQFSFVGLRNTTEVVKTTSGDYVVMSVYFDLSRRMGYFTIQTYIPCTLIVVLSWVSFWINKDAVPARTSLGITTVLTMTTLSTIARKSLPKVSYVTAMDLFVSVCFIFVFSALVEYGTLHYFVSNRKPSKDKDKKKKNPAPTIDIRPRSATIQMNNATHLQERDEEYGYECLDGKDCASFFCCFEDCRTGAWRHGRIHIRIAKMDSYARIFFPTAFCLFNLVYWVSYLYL
Summary of the method: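 Whole-cell patch clamp at −60 mV on HEK293 stably expressing α5β3γ2, pH 7.4 extracellular/CsCl internal solutions. Current evoked by 0.05 μM GABA, then compound in GABA solution; screening at 100 nM, dose-response 0.3–300 nM. Inverse agonist efficacy as % change of GABA current.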

Compound | solubility thermodynamic at 4 h [1] [mg/mL] | inhibition at 0.1 µM (α5-GABAA receptor) [%]
COCCN1Cc2ccc(COc3nn4c(-c5cc(C)on5)nnc4cc3OC)nc2C1 [Embodiment 99] | 0.222 (≈ 508 µM) | 33.7
CCN1Cc2ccc(COc3nn4c(-c5cc(C)on5)nnc4cc3OC)nc2C1=O [Embodiment 100] | 0.07 (≈ 166 µM) | 35.3
COc1cc2nnc(-c3cc(C)on3)n2nc1OCc1ccc2c(n1)CN(C(C)C)C2 [Embodiment 102] | 0.0308 (≈ 73.1 µM) | 47.3
COc1cc2nnc(-c3cc(C)on3)n2nc1OCc1cccc(C2CCCNC2)n1 (centres unmarked) [Embodiment 103] | 0.322 (≈ 764 µM) | 43.9
COCCCN1CCc2nc(COc3nn4c(-c5cc(C)on5)nnc4cc3OC)ccc2C1=O [Embodiment 107] | 0.212 (≈ 443 µM) | 39.3
CCN1CCc2nc(COc3nn4c(-c5cc(C)on5)nnc4cc3OC)ccc2C1=O [Embodiment 109] | 0.054 (≈ 124 µM) | 47.3
COCCN1CCc2nc(COc3nn4c(-c5cc(C)on5)nnc4cc3OC)ccc2C1=O [Embodiment 110] | 0.0466 (≈ 100 µM) | 58.6
COCCCC(=O)N1CCc2nc(COc3nn4c(-c5cc(C)on5)nnc4cc3OC)ccc2C1 [Embodiment 112] | 0.318 (≈ 644 µM) | 52.4
COc1cc2nnc(-c3cc(C)on3)n2nc1OCc1ccc2c(n1)CCN(CCS(C)(=O)=O)C2 [Embodiment 113, 3-(7-Methoxy-6-((6-(2-(methylsulfonyl)ethyl)-5,6,7,8-tetrahydro-1,6-naphthalen-2-yl)methoxy)-[1,2,4]triazolo[4,3-b]pyridazin-3-yl)-5-methylisoxazole] | 0.191 (≈ 383 µM) | 36.7
COc1cc2nnc(-c3cc(C)on3)n2nc1OCc1ccc2c(n1)CCN(C1(CC#N)COC1)C2 [Embodiment 114, 2-(3-(2-(((7-Methoxy-3-(5-methylisoxazol-3-yl)-[1,2,4]triazolo[4,3-b]pyridazin-6-yl)oxy)methyl)-7,8-dihydro-1,6-naphthyridin-6(5H)-yl)oxetan-3-yl)acetonitrile] | 0.139 (≈ 284 µM) | 36
COc1cc2nnc(-c3cc(C)on3)n2nc1OCc1ccc2c(n1)CCN(C(C)=O)C2 [Embodiment 115] | 0.137 (≈ 315 µM) | 32.9
COc1cc2nnc(-c3cc(C)on3)n2nc1OCc1cccc(C2CCCN(C3COC3)C2)n1 (centres unmarked) [Embodiment 122] | 0.0484 (≈ 101 µM) | 31.9
COc1cc2nnc(-c3cc(C)on3)n2nc1OCc1ccc(C2(F)CN(C)C2)cn1 [Embodiment 124] | 0.365 (≈ 859 µM) | 43.9
COc1cc2nnc(-c3cc(C)on3)n2nc1OCc1cccc(C2CCNCC2)n1 [Embodiment 126] | 0.203 (≈ 481 µM) | 38.3
CCN1CC(F)(c2ccc(COc3nn4c(-c5cc(C)on5)nnc4cc3OC)nc2)C1 [Embodiment 127] | 0.223 (≈ 508 µM) | 41.8
COCCn1ccc2nc(COc3nn4c(-c5noc(C)n5)nnc4cc3OC)ccc2c1=O [Embodiment 130] | 0.0309 (≈ 66.5 µM) | 39.9
COc1cc2nnc(-c3cc(C)on3)n2nc1OCc1cccc2nccn12 [Embodiment 135] | 0.0354 (≈ 93.8 µM) | 39.5
COc1cc2nnc(-c3cc(C)on3)n2nc1OCc1ccc2c(n1)CCN(C1COC1)C2=O [Embodiment 141] | 0.0639 (≈ 138 µM) | 40.6
COc1cc2nnc(-c3cc(C)on3)n2nc1OCc1ccc(OCC2(C)COC2)nn1 [Embodiment 150] | 0.263 (≈ 598 µM) | 46.2
COCCCOc1cc(C)c(COc2nn3c(-c4cc(C)on4)nnc3cc2OC)nn1 [Embodiment 156] | 0.0738 (≈ 167 µM) | 40.5
COc1cc2nnc(-c3cc(C)on3)n2nc1OCc1cnnn1C [Embodiment 158] | 0.0382 (≈ 112 µM) | 53.1
COc1cc2nnc(-c3cc(C)on3)n2nc1OCc1ccc(OCC2CCOC2)nn1 (centres unmarked) [Embodiment 162] | 0.237 (≈ 538 µM) | 36.6

Compound | solubility thermodynamic at 4 h [1] [mg/mL] | inhibition at 0.1 µM (α5-GABAA receptor) [%]
COc1cc2nnc(-c3cc(C)on3)n2nc1OCc1ccc(OCCN2CCN(C)CC2)nn1 [Embodiment 163] | 0.179 (≈ 373 µM) | 45.2
COc1cc2nnc(-c3cc(C)on3)n2nc1OCc1ccc(OCCN2CCOCC2)nn1 [Embodiment 164] | 0.309 (≈ 660 µM) | 33.9
CCN1CCC(c2cccc(COc3nn4c(-c5cc(C)on5)nnc4cc3OC)n2)CC1 [Embodiment 167] | 0.408 (≈ 907 µM) | 42.5
CCOCCCOc1ccc(COc2nn3c(-c4cc(C)on4)nnc3cc2OC)nn1 [Embodiment 168] | 0.0599 (≈ 136 µM) | 37.5
COc1cc2nnc(-c3cc(C)on3)n2nc1OCc1ccc(CN2CCC2)cn1 [Embodiment 169] | 0.306 (≈ 752 µM) | 40.7
COc1cc2nnc(-c3cc(C)on3)n2nc1OCc1ccc(OCC2(C)COC2)cn1 [Embodiment 170] | 0.0661 (≈ 151 µM) | 32.9
COc1cc2nnc(-c3cc(C)on3)n2nc1OCc1ccc(OCC2CCOC2)cn1 (centres unmarked) [Embodiment 173] | 0.0328 (≈ 74.8 µM) | 58.8
COc1cc2nnc(-c3cc(C)on3)n2nc1OCc1ccc(OC2CCOCC2)cn1 [Embodiment 174] | 0.0354 (≈ 80.8 µM) | 43.5
COc1cc2nnc(-c3cc(C)on3)n2nc1OCc1ccc(OC2CC3(COC3)C2)nn1 [Embodiment 179] | 0.0449 (≈ 99.5 µM) | 39
COc1cc2nnc(-c3cc(C)on3)n2nc1OCc1cc(OC2COC2)cnn1 [Embodiment 180] | 0.146 (≈ 356 µM) | 65.4
COc1cc2nnc(-c3cc(C)on3)n2nc1OCc1ccc2c(n1)CCN(CC(=O)N1CCCC1)C2 [Embodiment 189] | 0.0758 (≈ 150 µM) | 52.4
COc1cc2nnc(-c3cc(C)on3)n2nc1OCc1ccc2c(n1)CCN(CC(=O)N(C)C)C2 [Embodiment 193] | 0.2 (≈ 418 µM) | 32.6
COc1cc2nnc(-c3cc(C)on3)n2nc1OCc1ccc2c(n1)CCN(C1CN(C(=O)C3CC3)C1)C2 [Embodiment 198] | 0.204 (≈ 395 µM) | 55.9
COc1cc2nnc(-c3cc(C)on3)n2nc1OCc1ccc2c(n1)CCN(CC1(C)COC1)C2 [Embodiment 200] | 0.229 (≈ 479 µM) | 37.4
COc1cc2nnc(-c3cc(C)on3)n2nc1OCc1ccc2c(n1)CCN(C(=O)N1CCOCC1)C2 [Embodiment 202] | 0.0326 (≈ 64.3 µM) | 57.4
COc1cc2nnc(-c3cc(C)on3)n2nc1OCc1ccc2c(n1)CCN(C(=O)N(C)C)C2 [Embodiment 203] | 0.264 (≈ 569 µM) | 63.6
COc1cc2nnc(-c3cc(C)on3)n2nc1OCc1ccc2c(n1)CCN(C(=O)C(C)(C)C)C2 [Embodiment 206] | 0.0348 (≈ 72.8 µM) | 44.7
COc1cc2nnc(-c3cc(C)on3)n2nc1OCc1ccc2c(n1)CCN(C(=O)NCC(F)(F)F)C2 [Embodiment 208] | 0.034 (≈ 65.5 µM) | 52.2
CCS(=O)(=O)N1CCc2nc(COc3nn4c(-c5cc(C)on5)nnc4cc3OC)ccc2C1 [Embodiment 210] | 0.047 (≈ 96.8 µM) | 43.4
COc1cc2nnc(-c3cc(C)on3)n2nc1OCc1ccc2nnc(C(C)C)n2n1 [Embodiment 214] | 0.237 (≈ 562 µM) | 34.9
COc1cc2nnc(-c3cc(C)on3)n2nc1OCc1ccc2nnc(C)n2n1 [Embodiment 216] | 0.167 (≈ 425 µM) | 52.1
